We go through four compounds from PubChem BioAssay AID1259411 (Chemical Carcinogenesis Research Information System (CCRIS), 2018).

In the data set the test system is rodent carcinogenicity bioassays, tumor incidence. Nature of the data set: CCRIS carcinogenicity studies. As to conditions: Dose: 0, Dose: 0. The procedure, abridged:
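Archive of carcinogenicity, mutagenicity, tumor promotion and tumor inhibition results drawn from journals, NCI reports and other sources, expert-reviewed; covers 1985-2011 and is no longer updated.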

Active and inactive are the calls of the source. No rule for the calls is given here.

Consider `NNC(=O)c1cccnc1`, for which the carcinogen call reads like this: (Species: MOUSE, Strain/Sex: SWISS/FEMALE, Route: ORAL, 0.125% IN DRINKING WATER FOR LIFE, STUDY DURATION: 100-110 WK, 0.125% IN DRINKING WATER FOR LIFE, STUDY DURATION: 100-110 WK, Tumor Site: Type of Lesion: LUNG: ADENOMA, ADENOMA OR ADENOCARCINOMA) “active; positive”; (Species: MOUSE, Strain/Sex: SWISS/MALE, Route: ORAL, 0.125% IN DRINKING WATER FOR LIFE, STUDY DURATION: 90-100 WK, 0.125% IN DRINKING WATER FOR LIFE, STUDY DURATION: 90-100 WK, Tumor Site: Type of Lesion: LUNG: ADENOMA OR ADENOCARCINOMA) “active; positive”.
`O=[N+]([O-])c1cc2c3c(ccc2c2ccccc12)[C@H](O)[C@@H](O)C=C3`: the carcinogen call was “active; positive” (Species: MOUSE, Strain/Sex: SWISS/FEMALE, Route: INTRAPERITONEAL, 100 NMOL (TOTAL DOSE) 1/7, 2/7 AND 4/7 ADMINISTERED ON DAYS 1, 8 AND 15 OF LIFE RESPECTIVELY (STUDY DURATION: 32 WK), Tumor Site: Type of Lesion: LUNG: TUMOR) and “active; positive” (Species: MOUSE, Strain/Sex: SWISS/MALE, Route: INTRAPERITONEAL, 100 NMOL (TOTAL DOSE) 1/7, 2/7 AND 4/7 ADMINISTERED ON DAYS 1, 8 AND 15 OF LIFE RESPECTIVELY (STUDY DURATION: 32 WK), Tumor Site: Type of Lesion: LUNG: TUMOR, LIVER: TUMOR).
With `CC/C(=C(\c1ccccc1)c1ccc(OCCN(C)C)cc1)c1ccccc1`, the carcinogen call runs as follows: (Species: MONKEY, Strain/Sex: CYNOMOLGUS/FEMALE, Route: ORAL, 20 MG/WOMAN/D HUMAN DOSE EQUIVALENT IN DIET FOR 36 MONTHS BEGINNING 3 MONTHS POST BILATERAL OVARIECTOMY (STUDY DURATI) “inactive; negative”; (Species: MOUSE, Strain/Sex: CD-1/FEMALE, Route: SUBCUTANEOUS, 1, 2, 5, 10, 25, 50 UG/D ON DAYS 1-5 OF LIFE (STUDY DURATION: 17 MO), 1, 2, 5, 10, 25, 50 UG/D ON DAYS 1-5 OF LIFE (STUDY DURATION: 17 MO), Tumor Site: Type of Lesion: UTERUS: ADENOCARCINOMA) “active; positive”; (Species: Mouse, Strain/Sex: CD-1/Female (30/group), Route: Subcutaneous, 10 ug as tamoxifen in peanut oil, dosed on days 1-5 of life and retained for 1.5 (4 animals), 3 (4 animals), 6 (4 ani, 10 ug as tamoxifen in peanut oil, dosed on days 1-5 of life and retained for 1.5 (4 animals), 3 (4 animals), 6 (4 ani, Tumor Site: Type of Lesion: Uterus and ovaries examined) “inactive; negative”; (Species: Mouse, Strain/Sex: CD-1/Female (35/group), Route: Subcutaneous, 5, 10, 25, 50 ug as tamoxifen in peanut oil, dosed on days 1-5 of life and retained for 3 (4 animals), 6 (4 animals),, 5, 10, 25, 50 ug as tamoxifen in peanut oil, dosed on days 1-5 of life and retained for 3 (4 animals), 6 (4 animals),, Tumor Site: Type of Lesion: Uterus and ovaries examined) “inactive; negative (nonneoplastic changes were observed)”; (Species: RAT, Strain/Sex: ALDERLEY PARK/FEMALE, Route: GAVAGE, 5, 20, 35 MG/KG/D IN 0.5% HYDROXYPROPYL METHYLCELLULOSE FOR 2 YR (STUDY DURATION: 2 YR), 5, 20, 35 MG/KG/D IN 0.5% HYDROXYPROPYL METHYLCELLULOSE FOR 2 YR (STUDY DURATION: 2 YR), Tumor Site: Type of Lesion: LIVER: HEPATOCELLULAR ADENOMA, HEPATOCELLULAR CARCINOMA, HEPATO/CHOLANGIOCELLULAR CARCINOMA) “active; positive”; (Species: RAT, Strain/Sex: ALDERLEY PARK/MALE, Route: GAVAGE, 5, 20, 35 MG/KG/D IN 0.5% HYDROXYPROPYL METHYLCELLULOSE FOR 2 YR (STUDY DURATION: 2 YR), 5, 20, 35 MG/KG/D IN 0.5% HYDROXYPROPYL METHYLCELLULOSE FOR 2 YR (STUDY DURATION: 2 YR), Tumor Site: Type of Lesion: LIVER: HEPATOCELLULAR ADENOMA, HEPATOCELLULAR CARCINOMA, HEPATO/CHOLANGIOCELLULAR CARCINOMA) “active; positive”. Further, the carcinogen call (Species: RAT, Strain/Sex: SPRAGUE-DAWLEY/FEMALE, Route: GAVAGE, 2.8, 11.3, 45.2 MG/KG/D IN CARBOXYMETHYL-CELLULOSE FOR UP TO 1 YR WITH 2 RECOVERY PERIODS, 4 WK OF RECOVERY AFTER 6 M, 2.8, 11.3, 45.2 MG/KG/D IN CARBOXYMETHYL-CELLULOSE FOR UP TO 1 YR WITH 2 RECOVERY PERIODS, 4 WK OF RECOVERY AFTER 6 M, Tumor Site: Type of Lesion: LIVER: ADENOMA, CARCINOMA) was “active; positive”; the carcinogen call (Species: RAT, Strain/Sex: SPRAGUE-DAWLEY/FEMALE, Route: GAVAGE, 11.3, 22.6 MG/KG IN 0.5% CARBOXYMETHYLCELLULOSE 1/D 7 D/WK FOR UP TO 12 MO (STUDY DURATION: 15 MO), 11.3, 22.6 MG/KG IN 0.5% CARBOXYMETHYLCELLULOSE 1/D 7 D/WK FOR UP TO 12 MO (STUDY DURATION: 15 MO), Tumor Site: Type of Lesion: LIVER: HEPATOCELLULAR ADENOMA, HEPATOCELLULAR CARCINOMA) is “active; positive”; the carcinogen call (Species: RAT, Strain/Sex: WISTAR/FEMALE, Route: ORAL, 1 MG/KG BW/D IN PEANUT OIL/LECITHIN/CONDENSED MILK MIXTURE ON DAYS 2-5 OF AGE (STUDY DURATION: 35 MONTHS), Tumor Site: Type of Lesion: UTERUS: ADENOCARCINOMA, VAGINA/CERVIX: SQUAMOUS CELL CARCINOMA) is “active; positive”; the carcinogen call (Species: RAT, Strain/Sex: WISTAR/FEMALE, Route: ORAL, 420 PPM IN DIET FOR 3 MO (STUDY DURATION: LIFETIME), Tumor Site: Type of Lesion: LIVER: TUMOR) is “active; positive”.
For `O[C@@H]1[C@@H]2O[C@@H]2c2c(cc3ccc4cccc5c6ccccc6c2c3c45)[C@H]1O`, the carcinogen call runs as follows: (Species: MOUSE, Strain/Sex: ICR/FEMALE, Route: INTRAPERITONEAL, 0.7 NMOL TOTAL DOSE INJECTED ON DAY 1 OF LIFE (STUDY DURATION: 35 WK), Tumor Site: Type of Lesion: LIVER: TUMOR, LUNG: TUMOR) “active; positive”; (Species: MOUSE, Strain/Sex: ICR/FEMALE, Route: INTRAPERITONEAL, 1 NMOL (TOTAL DOSE) ADMINISTERED IN DOSES OF 1/7, 2/7, AND 4/7 ON DAYS 1, 7, AND 15 OF LIFE, RESPECTIVELY (STUDY DURA, Tumor Site: Type of Lesion: LUNG: TUMOR) “active; positive”; (Species: MOUSE, Strain/Sex: ICR/FEMALE, Route: INTRAPERITONEAL, 1 NMOL TOTAL DOSE INJECTED IN DOSES OF 1/7 ON DAY 1, 2/7 ON DAY 8, AND 4/7 ON DAY 15 OF LIFE (STUDY DURATION: 35 WK), Tumor Site: Type of Lesion: LIVER: TUMOR, LUNG: TUMOR) “active; positive”; (Species: MOUSE, Strain/Sex: ICR/MALE, Route: INTRAPERITONEAL, 0.7 NMOL TOTAL DOSE INJECTED ON DAY 1 OF LIFE (STUDY DURATION: 35 WK), Tumor Site: Type of Lesion: LUNG: TUMOR) “active; positive”; (Species: MOUSE, Strain/Sex: ICR/MALE, Route: INTRAPERITONEAL, 1 NMOL (TOTAL DOSE) ADMINISTERED IN DOSES OF 1/7, 2/7, AND 4/7 ON DAYS 1, 7, AND 15 OF LIFE, RESPECTIVELY (STUDY DURA, Tumor Site: Type of Lesion: LUNG: TUMOR, LIVER: TUMOR) “active; positive”; (Species: MOUSE, Strain/Sex: ICR/MALE, Route: INTRAPERITONEAL, 1 NMOL TOTAL DOSE INJECTED IN DOSES OF 1/7 ON DAY 1, 2/7 ON DAY 8, AND 4/7 ON DAY 15 OF LIFE (STUDY DURATION: 35 WK), Tumor Site: Type of Lesion: LIVER: TUMOR, LUNG:TUMOR) “active; positive”. Moreover, the carcinogen call is “active; positive” (Species: RAT, Strain/Sex: CD-1/FEMALE, Route: INJECTION, 0.2 UMOL IN 0.1 ML DMSO INJECTED BENEATH EACH OF THE 6 NIPPLES ON THE LEFT SIDE (STUDY DURATION: 41 WK), Tumor Site: Type of Lesion: MAMMARY GLAND: TUMOR) and “active; positive” (Species: RAT, Strain/Sex: STRAIN-CD/FEMALE, Route: INJECTION, 0.2 UMOL IN 0.1 ML DMSO INJECTED UNDER EACH OF THE 3 LEFT THORACIC NIPPLES FOLLOWED THE NEXT DAY BY SIMILAR TREATMENT, Tumor Site: Type of Lesion: MAMMARY GLAND: TUMOR).
